Assay results from PubChem BioAssay (NCI).
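These data come from cells grown in 96-well plates and exposed to compound for 48 hours at five concentrations. At the GI50, growth is halved. At the TGI there is no net growth.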

How the values were obtained:
Experiment in all cases: DTP human tumour cell line panel, 48 h
CAKI-1 renal = system: CAKI-1 renal
HL-60(TB) leukemia = system: HL-60(TB) leukemia
HT29 colon = system: HT29 colon
LOX IMVI melanoma = system: LOX IMVI melanoma
MOLT-4 leukemia = system: MOLT-4 leukemia
NCI-H23 lung = system: NCI-H23 lung
SF-295 CNS = system: SF-295 CNS
SF-539 CNS = system: SF-539 CNS
SNB-19 CNS = system: SNB-19 CNS
UO-31 renal = system: UO-31 renal

| SMILES | TGI (CAKI-1 renal) [µM] | TGI (HL-60(TB) leukemia) [µM] | TGI (HT29 colon) [µM] | TGI (LOX IMVI melanoma) [µM] | TGI (MOLT-4 leukemia) [µM] | TGI (NCI-H23 lung) [µM] | TGI (SF-295 CNS) [µM] | TGI (SF-539 CNS) [µM] | TGI (SNB-19 CNS) [µM] | TGI (UO-31 renal) [µM] | GI50 (CAKI-1 renal) [µM] | GI50 (HL-60(TB) leukemia) [µM] | GI50 (HT29 colon) [µM] | GI50 (LOX IMVI melanoma) [µM] | GI50 (MOLT-4 leukemia) [µM] | GI50 (NCI-H23 lung) [µM] | GI50 (SF-295 CNS) [µM] | GI50 (SF-539 CNS) [µM] | GI50 (SNB-19 CNS) [µM] | GI50 (UO-31 renal) [µM] |
| --- | --- | --- | --- | --- | --- | --- | --- | --- | --- | --- | --- | --- | --- | --- | --- | --- | --- | --- | --- | --- |
| COc1ccccc1NC(=O)C(CC(C(=O)Nc1ccccc1OC)/C(C)=N/Nc1ccc([N+](=O)[O-])cc1[N+](=O)[O-])/C(C)=N/Nc1ccc([N+](=O)[O-])cc1[N+](=O)[O-] (centres undefined) | > 100 | > 100 | > 100 | > 100 | > 100 | > 100 | > 100 | > 100 | > 100 | > 100 |  |  |  |  |  |  |  |  |  |  |
| CCOC(=O)C(NC(=O)c1[nH]cnc1/N=N/N(C)C)C(C)C (centres undefined) | > 100 | > 100 | > 100 | > 100 | > 100 | > 100 | > 100 | > 100 | > 100 | > 100 |  |  |  |  |  |  |  |  |  |  |
| COc1cc(/C=C(\C#N)C(N)=C(C#N)C#N)cc(O)c1O | > 100 | > 81.5 | > 100 | > 100 | > 100 | > 100 | > 100 | > 100 | > 100 | > 100 |  |  |  |  |  |  |  |  |  |  |
| CC1(C)OC2C(COS(N)(=O)=O)SC(n3cnc4cncnc43)C2O1 (centres undefined) | > 100 | > 100 | > 100 | > 100 | > 100 | > 100 | > 100 | > 100 | > 100 | > 100 | > 100 | > 100 | > 100 | > 100 | > 100 | > 100 | > 100 | > 100 | > 100 | > 100 |
| O=C1CN(/N=C/c2ccc(-c3ccc(F)cc3)o2)C(=O)N1 | > 100 | > 100 |  | > 100 | > 100 | > 100 | > 100 | > 100 | > 100 | > 100 |  |  |  |  |  |  |  |  |  |  |
| CC(NC(=O)c1ccccc1)(C(=O)O)C(=O)O | > 100 | > 100 | > 100 | > 100 | > 100 | > 100 | > 100 | > 100 | > 100 | > 100 |  |  |  |  |  |  |  |  |  |  |
| CNC(=O)CN(CC(N)=O)C(N)=O | > 100 | > 100 | > 100 | > 100 | > 100 | > 100 | > 100 | > 100 | > 100 | > 100 |  |  |  |  |  |  |  |  |  |  |
| CC(=O)N(Cc1ccccc1)c1ccccc1I(=O)=O | > 100 | 50.8 | > 100 | 35.6 | 42.9 | > 100 | > 100 | > 100 | > 100 | > 100 | 42.2 | 14.9 | 27.8 | 17.5 | 12.7 | 37.8 | 48.3 | > 100 | 82.2 | 38 |
| O=S(=O)(c1ccc(O)c(C=Nc2ccc(Cl)cc2)c1)c1ccc(O)c(C=Nc2ccc(Cl)cc2)c1 | > 100 | > 100 | > 100 | > 100 | > 100 | > 100 | > 100 | > 100 | > 100 | > 100 |  |  |  |  |  |  |  |  |  |  |
